Laboratory results taken from patent US10227323B2, “Glucosylceramide synthase inhibitors for the treatment of diseases” (BIOMARIN PHARMACEUTICAL INC., priority 2013, dated 2019).

Molecular target: T1, GCS (Canis lupus familiaris, UniProt A0A8I3MXG6)
T1 sequence (A0A8I3MXG6 1-394): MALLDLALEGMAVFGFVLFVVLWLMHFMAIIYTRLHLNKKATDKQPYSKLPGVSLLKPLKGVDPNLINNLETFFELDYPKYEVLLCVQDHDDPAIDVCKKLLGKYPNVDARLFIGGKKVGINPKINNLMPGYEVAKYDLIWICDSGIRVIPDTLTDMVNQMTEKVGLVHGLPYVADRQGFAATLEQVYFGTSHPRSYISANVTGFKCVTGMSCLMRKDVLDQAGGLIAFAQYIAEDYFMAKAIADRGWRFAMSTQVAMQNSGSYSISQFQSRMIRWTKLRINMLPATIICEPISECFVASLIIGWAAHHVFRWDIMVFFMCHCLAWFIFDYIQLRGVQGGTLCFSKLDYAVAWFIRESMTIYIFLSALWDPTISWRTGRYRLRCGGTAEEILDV
Assay: Assay 1: GCS Enzymatic Assay (MDCK cell lysate, C6-NBD-Ceramide, LC/MS)
Format: biochemical, canine
Conditions: Table 2; data without asterisk; read-out: IC50 (nM) generated from Assay 1
In short: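 LC/MS/MS measurement of glucosylceramide and NBD-ceramide after a 1 h, 37 °C reaction with 100 μM UDP-glucose and 10 μM C6-NBD-ceramide gave IC50s or percent inhibition.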

SMILES	IC50
O=C(N[C@H](CN1CCC1)[C@H](O)c1cc(Cl)c2c(c1)OCCO2)C(=O)c1ccc(-c2ccc(F)cc2)cc1 [Example 300, N-((1R,2R)-3-(azetidin-1-yl)-1-(8-chloro-2,3-dihydrobenzo[b][1,4]dioxin-6-yl)-1-hydroxypropan-2-yl)-2-(4′-fluoro-[1,1′-biphenyl]-4-yl)-2-oxoacetamide]	< 50 nM
N#Cc1ccc(-c2ccc(C(=O)C(=O)N[C@H](CN3CCCC3)[C@H](O)c3ccc(OC4CC4)c(Cl)c3)cc2)cc1 [Example 301, N-((1R,2R)-1-(3-chloro-4-cyclopropoxyphenyl)-1-hydroxy-3-(pyrrolidin-1-yl)propan-2-yl)-2-(4′-cyano-[1,1′-biphenyl]-4-yl)-2-oxoacetamide]	< 50 nM
O=C(N[C@H](CN1CCCC1)[C@H](O)c1ccc(OC2CC2)c(Cl)c1)C(=O)c1ccc2oc3ccc(Br)cc3c2c1 [Example 302, 2-(8-bromodibenzo[b,d]furan-2-yl)-N-((1R,2R)-1-(3-chloro-4-cyclopropoxyphenyl)-1-hydroxy-3-(pyrrolidin-1-yl)propan-2-yl)-2-oxoacetamide]	< 50 nM
[2H]C([2H])(C(=O)N[C@H](CN1CCCC1)[C@H](O)c1ccc(OC2CC2)c(Cl)c1)c1ccc(-c2ccc(F)cc2)cc1 [Example 303, N-[(1R,2R)-2-(3-chloro-4-cyclopropoxyphenyl)-2-hydroxy-1-(pyrrolidinylmethyl)ethyl]-2-[4-(4-fluorophenyl)phenyl]acetamide]	< 50 nM
O=C(N[C@H](CN1CCCC1)[C@H](O)c1ccc(OC2CC2)c(Cl)c1)C(=O)c1ccc2nn(Cc3ccc(F)cc3)cc2c1 [Example 304, N-((1R,2R)-1-(3-chloro-4-cyclopropoxyphenyl)-1-hydroxy-3-(pyrrolidin-1-yl)propan-2-yl)-2-(2-(4-fluorobenzyl)-2H-indazol-5-yl)-2-oxoacetamide]	< 50 nM
O=C(N[C@H](CN1CCCC1)[C@H](O)c1cc(F)c2c(c1)OCCO2)C(=O)c1ccc2nn(Cc3ccc(F)cc3)cc2c1 [Example 305, N-((1R,2R)-1-(8-fluoro-2,3-dihydrobenzo[b][1,4]dioxin-6-yl)-1-hydroxy-3-(pyrrolidin-1-yl)propan-2-yl)-2-(2-(4-fluorobenzyl)-2H-indazol-5-yl)-2-oxoacetamide]	< 50 nM
CC(C)n1ncc2ccc(C(=O)C(=O)N[C@H](CN3CCCC3)[C@H](O)c3ccc(OC4CC4)c(Cl)c3)cc21 [Example 306, N-((1R,2R)-1-(3-chloro-4-cyclopropoxyphenyl)-1-hydroxy-3-(pyrrolidin-1-yl)propan-2-yl)-2-(1-isopropyl-1H-indazol-6-yl)-2-oxoacetamide]	< 50 nM
CC(C)n1ncc2ccc(C(=O)C(=O)N[C@H](CN3CCCC3)[C@H](O)c3cc(F)c4c(c3)OCCO4)cc21 [Example 307, N-((1R,2R)-1-(8-fluoro-2,3-dihydrobenzo[b][1,4]dioxin-6-yl)-1-hydroxy-3-(pyrrolidin-1-yl)propan-2-yl)-2-(1-isopropyl-1H-indazol-6-yl)-2-oxoacetamide]	< 50 nM
O=C(N[C@H](CN1CCCC1)[C@H](O)c1cc(F)c2c(c1)OCCO2)C(=O)c1cc2ccc(Cl)cc2s1 [Example 308, 2-(6-chlorobenzo[b]thiophen-2-yl)-N-((1R,2R)-1-(8-fluoro-2,3-dihydrobenzo[b][1,4]dioxin-6-yl)-1-hydroxy-3-(pyrrolidin-1-yl)propan-2-yl)-2-oxoacetamide]	< 50 nM
O=C(N[C@H](CN1CCCC1)[C@H](O)c1ccc(OC2CCCC2)c(Cl)c1)C(=O)c1ccc(-c2ccc(F)cc2)cc1 [Example 309, N-((1R,2R)-1-(3-chloro-4-(cyclopentyloxy)phenyl)-1-hydroxy-3-(pyrrolidin-1-yl)propan-2-yl)-2-(4′-fluoro-[1,1′-biphenyl]-4-yl)-2-oxoacetamide]	< 50 nM
Cc1c2cc(-c3ccc(C(=O)C(=O)N[C@H](CN4CCCC4)[C@H](O)c4ccc(OC5CC5)c(Cl)c4)cc3)ccc2nn1C(C)C [Example 310, N-((1R,2R)-1-(3-chloro-4-cyclopropoxyphenyl)-1-hydroxy-3-(pyrrolidin-1-yl)propan-2-yl)-2-(4-(2-isopropyl-3-methyl-2H-indazol-5-yl)phenyl)-2-oxoacetamide]	< 50 nM
CC(C)n1cc2cc(C(=O)C(=O)N[C@H](CN3CCCC3)[C@H](O)c3ccc(OC4CC4)c(Cl)c3)ccc2n1 [Example 311, N-((1R,2R)-1-(3-chloro-4-cyclopropoxyphenyl)-1-hydroxy-3-(pyrrolidin-1-yl)propan-2-yl)-2-(2-isopropyl-2H-indazol-5-yl)-2-oxoacetamide]	< 50 nM
CC(C)n1cc2ccc(C(=O)C(=O)N[C@H](CN3CCCC3)[C@H](O)c3cc(F)c4c(c3)OCCO4)cc2n1 [Example 312, N-((1R,2R)-1-(8-fluoro-2,3-dihydrobenzo[b][1,4]dioxin-6-yl)-1-hydroxy-3-(pyrrolidin-1-yl)propan-2-yl)-2-(2-isopropyl-2H-indazol-6-yl)-2-oxoacetamide]	< 50 nM
O=C(N[C@H](CN1CCCC1)[C@H](O)c1ccc(OC2CCC2)c(Cl)c1)C(=O)c1ccc(-c2ccc(F)cc2)cc1 [Example 313, N-((1R,2R)-1-(3-chloro-4-cyclobutoxyphenyl)-1-hydroxy-3-(pyrrolidin-1-yl)propan-2-yl)-2-(4′-fluoro-[1,1′-biphenyl]-4-yl)-2-oxoacetamide]	< 50 nM

Continued, values first:

IC50	SMILES
< 50 nM	Cc1nn(C(C)C)c2ccc(-c3ccc(C(=O)C(=O)N[C@H](CN4CCCC4)[C@H](O)c4ccc(OC5CC5)c(Cl)c4)cc3)cc12 [Example 314, N-((1R,2R)-1-(3-chloro-4-cyclopropoxyphenyl)-1-hydroxy-3-(pyrrolidin-1-yl)propan-2-yl)-2-(4-(1-isopropyl-3-methyl-1H-indazol-5-yl)phenyl)-2-oxoacetamide]
< 50 nM	Cc1cc(F)ccc1-c1ccc(C(=O)C(=O)N[C@H](CN2CCCC2)[C@H](O)c2cc(F)c3c(c2)OCCO3)cc1 [Example 315, 2-(4′-fluoro-2′-methyl-[1,1′-biphenyl]-4-yl)-N-((1R,2R)-1-(8-fluoro-2,3-dihydrobenzo[b][1,4]dioxin-6-yl)-1-hydroxy-3-(pyrrolidin-1-yl)propan-2-yl)-2-oxoacetamide]
< 50 nM	CC(C)n1cc2ccc(C(=O)C(=O)N[C@H](CN3CCCC3)[C@H](O)c3ccc(OC4CC4)c(Cl)c3)cc2n1 [Example 316, N-((1R,2R)-1-(3-chloro-4-cyclopropoxyphenyl)-1-hydroxy-3-(pyrrolidin-1-yl)propan-2-yl)-2-(2-isopropyl-2H-indazol-6-yl)-2-oxoacetamide]
< 50 nM	Cc1nn(C(C)C)c2ccc(C(=O)C(=O)N[C@H](CN3CCCC3)[C@H](O)c3ccc(OC4CC4)c(Cl)c3)cc12 [Example 317, N-((1R,2R)-1-(3-chloro-4-cyclopropoxyphenyl)-1-hydroxy-3-(pyrrolidin-1-yl)propan-2-yl)-2-(1-isopropyl-3-methyl-1H-indazol-5-yl)-2-oxoacetamide]
< 50 nM	Cc1nn(C)c2ccc(-c3ccc(C(=O)C(=O)N[C@H](CN4CCCC4)[C@H](O)c4ccc(OC5CC5)c(Cl)c4)cc3)cc12 [Example 318, N-((1R,2R)-1-(3-chloro-4-cyclopropoxyphenyl)-1-hydroxy-3-(pyrrolidin-1-yl)propan-2-yl)-2-(4-(1,3-dimethyl-1H-indazol-5-yl)phenyl)-2-oxoacetamide]
< 50 nM	O=C(N[C@H](CN1CCCC1)[C@H](O)c1ccc2c(c1)OC=CO2)C(=O)c1ccc(-c2ccc(F)cc2)cc1 [Example 319, N-((1R,2R)-1-(benzo[b][1,4]dioxin-6-yl)-1-hydroxy-3-(pyrrolidin-1-yl)propan-2-yl)-2-(4′-fluoro-[1,1′-biphenyl]-4-yl)-2-oxoacetamide]
< 50 nM	O=C(N[C@H](CN1CCCC1)[C@H](O)c1ccc(SC2CC2)c(Cl)c1)C(=O)c1ccc(-c2ccc(F)cc2)cc1 [Example 320, N-((1R,2R)-1-(3-chloro-4-(cyclopropylthio)phenyl)-1-hydroxy-3-(pyrrolidin-1-yl)propan-2-yl)-2-(4′-fluoro-[1,1′-biphenyl]-4-yl)-2-oxoacetamide]
< 50 nM	CC(C)n1ncc2cc(C(=O)C(=O)N[C@H](CN3CCCC3)[C@H](O)c3ccc(OC4CC4)c(Cl)c3)ccc21 [Example 321, N-((1R,2R)-1-(3-chloro-4-cyclopropoxyphenyl)-1-hydroxy-3-(pyrrolidin-1-yl)propan-2-yl)-2-(1-isopropyl-1H-indazol-5-yl)-2-oxoacetamide]
< 50 nM	Cc1nn(C)c2ccc(-c3ccc(C(=O)C(=O)N[C@H](CN4CCCC4)[C@H](O)c4cc(F)c5c(c4)OCCO5)cc3)cc12 [Example 322, 2-(4-(1,3-dimethyl-1H-indazol-5-yl)phenyl)-N-((1R,2R)-1-(8-fluoro-2,3-dihydrobenzo[b][1,4]dioxin-6-yl)-1-hydroxy-3-(pyrrolidin-1-yl)propan-2-yl)-2-oxoacetamide]
< 50 nM	CC(C)n1ccc2cc(C(=O)C(=O)N[C@H](CN3CCCC3)[C@H](O)c3cc(F)c4c(c3)OCCO4)ccc21 [Example 323, N-((1R,2R)-1-(8-fluoro-2,3-dihydrobenzo[b][1,4]dioxin-6-yl)-1-hydroxy-3-(pyrrolidin-1-yl)propan-2-yl)-2-(1-isopropyl-1H-indo1-5-yl)-2-oxoacetamide]
< 50 nM	CC(C)n1ccc2cc(C(=O)C(=O)N[C@H](CN3CCCC3)[C@H](O)c3ccc(OC4CC4)c(Cl)c3)ccc21 [Example 324, N-((1R,2R)-1-(3-chloro-4-cyclopropoxyphenyl)-1-hydroxy-3-(pyrrolidin-1-yl)propan-2-yl)-2-(1-isopropyl-1H-indo1-5-yl)-2-oxoacetamide]
